From BindingDB's records for doi:10.1124/jpet.103.049254 (Schering-Plough Research Institute, 2003)

Experiments:
[1] = biological target: Nischarin (Rattus norvegicus, UniProt Q4G017)
[2] = biological target: Hrh3 protein (Rattus norvegicus, UniProt Q5PPG3)
[3] = biological target: Histamine H1 receptor (Cavia porcellus, UniProt P31389)
[4] = biological target: Histamine H2 receptor (Cavia porcellus, UniProt P47747)
Histamine H2 receptor, sequence (P47747 whole entry): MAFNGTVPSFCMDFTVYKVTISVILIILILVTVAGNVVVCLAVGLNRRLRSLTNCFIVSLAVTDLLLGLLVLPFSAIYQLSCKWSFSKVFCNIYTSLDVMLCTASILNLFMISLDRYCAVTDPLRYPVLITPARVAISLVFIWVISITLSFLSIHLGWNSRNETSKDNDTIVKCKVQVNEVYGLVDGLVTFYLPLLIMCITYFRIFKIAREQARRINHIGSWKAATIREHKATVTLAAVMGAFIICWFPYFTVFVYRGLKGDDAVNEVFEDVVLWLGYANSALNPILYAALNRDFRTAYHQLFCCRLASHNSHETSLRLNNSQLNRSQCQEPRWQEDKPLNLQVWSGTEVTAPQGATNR

Hrh3 protein, sequence (Q5PPG3 whole entry): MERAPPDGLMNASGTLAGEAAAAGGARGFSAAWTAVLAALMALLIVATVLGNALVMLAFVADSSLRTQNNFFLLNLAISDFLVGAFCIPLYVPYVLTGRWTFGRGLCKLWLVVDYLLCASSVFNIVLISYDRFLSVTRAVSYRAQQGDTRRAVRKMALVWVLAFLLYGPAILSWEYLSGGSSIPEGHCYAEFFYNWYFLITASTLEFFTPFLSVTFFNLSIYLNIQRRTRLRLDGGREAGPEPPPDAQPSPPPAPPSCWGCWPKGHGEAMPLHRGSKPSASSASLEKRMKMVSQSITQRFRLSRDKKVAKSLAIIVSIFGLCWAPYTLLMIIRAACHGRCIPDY
Nischarin, sequence (Q4G017 whole entry): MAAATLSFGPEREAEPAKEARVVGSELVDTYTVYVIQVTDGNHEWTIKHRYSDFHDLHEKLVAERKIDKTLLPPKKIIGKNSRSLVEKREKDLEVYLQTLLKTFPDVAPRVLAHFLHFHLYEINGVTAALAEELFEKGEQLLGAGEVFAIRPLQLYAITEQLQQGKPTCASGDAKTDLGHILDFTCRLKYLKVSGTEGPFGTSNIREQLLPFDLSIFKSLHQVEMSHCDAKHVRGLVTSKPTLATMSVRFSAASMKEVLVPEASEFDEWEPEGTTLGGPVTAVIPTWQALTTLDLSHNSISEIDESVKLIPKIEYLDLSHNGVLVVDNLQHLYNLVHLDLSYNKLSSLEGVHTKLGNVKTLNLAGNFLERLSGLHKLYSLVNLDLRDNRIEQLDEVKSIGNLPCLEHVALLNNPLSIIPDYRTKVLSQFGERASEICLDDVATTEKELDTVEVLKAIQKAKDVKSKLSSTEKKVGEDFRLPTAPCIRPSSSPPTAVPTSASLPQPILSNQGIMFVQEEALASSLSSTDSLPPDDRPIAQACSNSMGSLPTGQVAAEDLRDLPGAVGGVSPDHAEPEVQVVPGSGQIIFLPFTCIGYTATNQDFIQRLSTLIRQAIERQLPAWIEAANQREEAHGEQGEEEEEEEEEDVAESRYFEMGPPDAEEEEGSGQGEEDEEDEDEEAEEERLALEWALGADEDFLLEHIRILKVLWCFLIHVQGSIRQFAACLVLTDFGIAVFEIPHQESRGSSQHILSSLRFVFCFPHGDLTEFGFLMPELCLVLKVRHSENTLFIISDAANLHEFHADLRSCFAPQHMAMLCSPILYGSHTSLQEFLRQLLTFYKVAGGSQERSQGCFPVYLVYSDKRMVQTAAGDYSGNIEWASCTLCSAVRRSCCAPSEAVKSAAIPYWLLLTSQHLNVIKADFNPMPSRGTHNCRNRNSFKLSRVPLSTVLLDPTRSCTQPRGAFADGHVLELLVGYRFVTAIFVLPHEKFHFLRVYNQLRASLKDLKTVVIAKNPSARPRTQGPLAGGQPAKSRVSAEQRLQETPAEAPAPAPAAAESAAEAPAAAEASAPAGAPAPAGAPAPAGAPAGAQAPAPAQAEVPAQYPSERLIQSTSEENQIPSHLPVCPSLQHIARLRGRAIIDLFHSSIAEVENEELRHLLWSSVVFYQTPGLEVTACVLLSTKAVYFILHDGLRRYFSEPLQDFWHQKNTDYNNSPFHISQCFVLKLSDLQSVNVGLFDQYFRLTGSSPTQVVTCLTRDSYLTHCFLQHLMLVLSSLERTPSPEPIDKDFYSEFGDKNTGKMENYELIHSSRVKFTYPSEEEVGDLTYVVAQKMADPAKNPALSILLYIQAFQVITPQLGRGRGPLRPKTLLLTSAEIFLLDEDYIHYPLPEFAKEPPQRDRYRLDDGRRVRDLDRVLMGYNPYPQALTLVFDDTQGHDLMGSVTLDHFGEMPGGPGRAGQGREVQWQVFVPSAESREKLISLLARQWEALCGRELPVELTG
Histamine H1 receptor, sequence (P31389 whole entry): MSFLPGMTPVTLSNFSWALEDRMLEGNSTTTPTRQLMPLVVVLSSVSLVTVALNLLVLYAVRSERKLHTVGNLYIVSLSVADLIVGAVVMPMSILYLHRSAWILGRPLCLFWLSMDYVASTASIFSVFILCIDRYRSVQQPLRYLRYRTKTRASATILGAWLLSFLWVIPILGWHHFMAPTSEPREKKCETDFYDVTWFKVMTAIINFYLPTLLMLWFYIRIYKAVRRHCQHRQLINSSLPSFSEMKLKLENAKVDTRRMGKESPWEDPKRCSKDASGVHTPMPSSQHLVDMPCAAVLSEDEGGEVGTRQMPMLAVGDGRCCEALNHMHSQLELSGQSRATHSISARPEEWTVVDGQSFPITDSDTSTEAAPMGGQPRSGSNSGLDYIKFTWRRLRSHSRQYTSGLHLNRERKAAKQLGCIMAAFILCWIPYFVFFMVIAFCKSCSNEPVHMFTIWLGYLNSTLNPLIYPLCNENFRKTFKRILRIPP

O=C(NCc1ccc(Cc2c[nH]cn2)cc1)Nc1cc(Cl)cc(Cl)c1
Ki [1]: 155 nM
Ki [2]: 1.9 nM
Ki [3]: 1000 nM
Ki [4]: 1000 nM
